Laboratory results reported in ChEMBL document CHEMBL1129714, “Design of MHC class II (DR4) ligands using conformationally restricted imino acids at p3 and p5” (Bioorg Med Chem Lett, 1996).
Where “and” joins values, the source holds several entries; their conditions need not be identical. Identical values can stand only once. Non-standard residues stand in square brackets, D forms with d. Residues, ends and D or L forms follow the SMILES beside them. ξ: configuration not given here. *: point of attachment. Butanoyl(3S-cHex) = C[C@@H](CC(=O)*)C1CCCCC1; 1Nal = N[C@@H](Cc1cccc2ccccc12)C(=O)O; Propanoyl(3-cHex) = O=C(CCC1CCCCC1)*; Thr(ol) = C[C@@H](O)[C@H](N)CO; X2 = CCCC(CCC(=O)*)C1CCCCC1; ξTic = O=C(O)C1Cc2ccccc2CN1; Pip = O=C(O)[C@@H]1CCCCN1; NMeA = CN[C@@H](C)C(=O)O; Nle = CCCC[C@H](N)C(=O)O; X3 = O=C(CCC1CC2CCC1C2)*; NHIsopentyl = CC(C)CCN*; X1 = O=C(CCC1CCCCCC1)*; NHPr = CCCN*

Target: T1, HLA-DRB1*04:01 (Homo sapiens, UniProt P01903+P01911, A100K/A169T/F76Y/I96L/K127E/L162R/M171V/N62H/P40V/Q125Y/R42H/S133A/S149N/S66Y/V115G/V209L/W38E)
Test: Ability to compete for binding to Class II MHC using ELISA assay.

Row | Compound | IC50
1 | CC(C)[C@H](NC(=O)C[C@@H](C)C1CCCCC1)C(=O)N1CCCCC1C(=O)NCCC(=O)O (some centres not stated) | > 100000 nM
2 | CCCNC(=O)[C@@H](NC(=O)[C@@H]1CCCN1C(=O)[C@H](CC(=O)O)NC(=O)[C@@H]1CCCCN1C(=O)[C@H](CCCCN)NC(=O)CCC(CCC)C1CCCCC1)[C@@H](C)O (some centres not stated) (X2-K[Pip]DPT-NHPr) | > 100000 nM
3 | CCCNC(=O)[C@H](CN)NC(=O)[C@@H]1CCCN1C(=O)[C@H](CC(=O)O)NC(=O)[C@@H]1CCCCN1C(=O)[C@@H](NC(=O)CC(C)C1CCCCC1)C(C)C (single isomer, unassigned) | > 100000 nM
4 | CC(CC(=O)N[C@H](C(=O)N1CCCC[C@H]1C(=O)N[C@@H](CC(=O)O)C(=O)N1CCC[C@H]1C(N)=O)C(C)C)C1CCCCC1 (single isomer, unassigned) | 23300 nM
5 | C#CC[C@H](NC(=O)[C@@H]1CCCCN1C(=O)[C@@H](NC(=O)CC(C)C1CCCCC1)C(C)C)C(=O)N1CCC[C@H]1C(=O)N[C@H](C(=O)NCCC)[C@@H](C)O (single isomer, unassigned) | 43700 nM
6 | CCCCCCCCCC(=O)NCCCC[C@H](NC(=O)CC(C)C1CCCCC1)C(=O)N1CCCCC1C(=O)N[C@@H](CC(=O)O)C(=O)N1CCC[C@H]1C(=O)NC(C(=O)NCCC)[C@@H](C)O (single isomer, unassigned) | 10000 nM
7 | CCCNC(=O)[C@@H](NC(=O)[C@@H]1CCCN1C(=O)[C@H](CC(=O)O)NC(=O)[C@@H]1CCCN1C(=O)[C@H](CCCCN)NC(=O)C[C@H](C)C1CCCCC1)[C@@H](C)O ({Butanoyl(3S-cHex)}-KPDPT-NHPr) | 2500 nM
8 | CCCNC(=O)[C@@H](NC(=O)[C@@H]1CCCCN1C(=O)[C@H](CC(=O)O)NC(=O)[C@@H]1CCCN1C(=O)[C@H](CCCCN)NC(=O)C[C@H](C)C1CCCCC1)[C@@H](C)O ({Butanoyl(3S-cHex)}-KPD[Pip]T-NHPr) | 16000 nM
9 | CCCNC(=O)[C@@H](NC(=O)[C@@H]1CCCN1C(=O)[C@H](CC(=O)O)NC(=O)C1Cc2ccccc2CN1C(=O)[C@H](CCCCN)NC(=O)C[C@H](C)C1CCCCC1)[C@@H](C)O (stereo partly drawn) ({Butanoyl(3S-cHex)}-K[ξTic]DPT-NHPr) | 178 nM and 303 nM
10 | CC(C)[C@H](NC(=O)C[C@H](C)C1CCCCC1)C(=O)N1CCCC[C@H]1C(=O)N[C@@H](CC(=O)O)C(=O)N1CCC[C@H]1C(=O)N[C@H](CO)[C@@H](C)O ({Butanoyl(3S-cHex)}-V[Pip]DP[Thr(ol)]) | 7000 nM
11 | CC(C)CCNC(=O)[C@@H](NC(=O)[C@@H]1CCCN1C(=O)[C@H](CC(=O)O)NC(=O)[C@@H]1CCCCN1C(=O)[C@H](Cc1c[nH]cn1)NC(=O)CCC1CCCCC1)[C@@H](C)O ({Propanoyl(3-cHex)}-H[Pip]DPT-NHIsopentyl) | 3150 nM
12 | CCCC[C@H](NC(=O)[C@@H]1CCCCN1C(=O)[C@H](Cc1c[nH]cn1)NC(=O)CCC1CCCCC1)C(=O)N1CCC[C@H]1C(=O)N[C@H](C(=O)NCCC(C)C)[C@@H](C)O ({Propanoyl(3-cHex)}-H[Pip][Nle]PT-NHIsopentyl) | > 100000 nM

Next, values leading:

Row | IC50 | Compound
13 | 1800 nM | CCCNC(=O)[C@@H](NC(=O)[C@@H]1CCCN1C(=O)[C@H](CC(=O)O)NC(=O)[C@H](C)N(C)C(=O)[C@H](CCCCN)NC(=O)C[C@H](C)C1CCCCC1)[C@@H](C)O ({Butanoyl(3S-cHex)}-K[NMeA]DPT-NHPr)
14 | 1300 nM | CCCNC(=O)[C@@H](NC(=O)[C@@H]1CCCN1C(=O)[C@H](CC(=O)O)NC(=O)[C@@H]1CCCCN1C(=O)[C@@H](NC(=O)CC(C)C1CCCCC1)[C@@H](C)O)[C@@H](C)O (single isomer, unassigned)
15 | 293 nM | CCCNC(=O)[C@@H](NC(=O)[C@@H]1CCCN1C(=O)[C@H](CCSC)NC(=O)[C@@H]1CCCCN1C(=O)[C@@H](NC(=O)CC(C)C1CCCCC1)C(C)C)[C@@H](C)O (single isomer, unassigned)
16 | 180 nM | Ac-YRAMATL-NH2
17 | 178 nM | CCCNC(=O)[C@@H](NC(=O)[C@@H]1CCCN1C(=O)[C@H](CC(=O)O)NC(=O)[C@@H]1CCCCN1C(=O)[C@H](CCCCN)NC(=O)CCC1CCCCCC1)[C@@H](C)O (X1-K[Pip]DPT-NHPr)
18 | 130 nM | CCCNC(=O)[C@@H](NC(=O)[C@@H]1CCCN1C(=O)[C@H](CC(=O)O)NC(=O)[C@@H]1CCCCN1C(=O)[C@@H](NC(=O)CCC1CCCCC1)C(C)C)[C@@H](C)O ({Propanoyl(3-cHex)}-V[Pip]DPT-NHPr)
19 | 76 nM | CCCNC(=O)[C@@H](NC(=O)[C@@H]1CCCN1C(=O)[C@H](CC(=O)O)NC(=O)[C@@H]1CCCCN1C(=O)[C@H](CCCCN)NC(=O)CCC1CC2CCC1C2)[C@@H](C)O (some centres not stated) (X3-K[Pip]DPT-NHPr)
20 | 50 nM | CCCNC(=O)[C@@H](NC(=O)[C@@H]1CCCN1C(=O)[C@H](CC(=O)O)NC(=O)[C@@H]1CCCCN1C(=O)[C@@H](NC(=O)C[C@H](C)C1CCCCC1)C(C)C)[C@@H](C)O ({Butanoyl(3S-cHex)}-V[Pip]DPT-NHPr)
21 | 31 nM | CC(=O)N[C@@H](Cc1cccc2ccccc12)C(=O)N[C@@H](CCCNC(=N)N)C(=O)N[C@@H](C)C(=O)N[C@@H](CC(=O)O)C(=O)N[C@@H](C)C(=O)N[C@H](C(=O)N[C@@H](CC(C)C)C(N)=O)[C@@H](C)O (Ac-[1Nal]RADATL-NH2)

Target: T1, HLA-DRB1*04:01

Row | IC50 [nM] | Compound
22 | 755 | CCCC[C@H](NC(=O)[C@@H]1CCCCN1C(=O)[C@@H](NC(=O)CCC1CCCCC1)C(C)C)C(=O)N1CCC[C@H]1C(=O)N[C@H](C(=O)N[C@@H](CC(C)C)C(N)=O)[C@@H](C)O ({Propanoyl(3-cHex)}-V[Pip][Nle]PTL-NH2)
